# Reference: ChEMBL document CHEMBL3352746, “Synthesis and anticancer activity of quinopimaric and maleopimaric acids’ derivatives” (Bioorg Med Chem, 2014)
# The source made the active and inactive calls. The rule behind the calls is not given here.
# What was measured:
# [1] = tested on: Mus musculus; experiment: Toxicity in mouse P388 cells implanted mouse assessed as mean spleen weight at 10 mg/kg, ip dosed daily for 5 days administered 24 hrs after tumor implantation; assay type: organism-based; design: dose 10 mg/kg, route intraperitoneal; details: in vivo
# [2] = tested on: CAKI-1; experiment: Growth inhibition of human CAKI-1 cells; assay type: functional
# [3] = Growth inhibition of human COLO205 cells; assay type: functional
# [4] = tested on: P388; experiment: Antitumor activity against mouse P388 cells implanted in mouse assessed as increase in life span at 60 mg/kg, ip dosed daily for 5 days administered 24 hrs after tumor implantation; assay type: functional; details: route intraperitoneal
# [5] = tested on: MDA-MB-435; experiment: Growth inhibition of human MDA-MB-435 cells; assay type: functional
# [6] = tested on: Lewis lung carcinoma cell line; experiment: Antitumor activity against mouse LLC cells implanted in mouse assessed as tumor growth inhibition at 40 mg/kg, ip dosed daily for 5 days measured 5 days after treatment termination; assay type: functional; details: 120 h, route intraperitoneal, read-out: TGI
# [7] = tested on: A549; experiment: Growth inhibition of human A549/ATCC cells; assay type: functional
# [8] = tested on: Mus musculus; experiment: Toxicity in mouse P388 cells implanted mouse assessed as mean ascites volume at 60 mg/kg, ip dosed daily for 5 days administered 24 hrs after tumor implantation; assay type: organism-based; design: dose 60 mg/kg, route intraperitoneal; details: in vivo
# [9] = tested on: K562; experiment: Growth inhibition of human K562 cells; assay type: functional
# [10] = tested on: A498; experiment: Growth inhibition of human A498 cells; assay type: functional
# [11] = Antitumor activity against mouse CA-755 cells implanted in mouse assessed as tumor growth inhibition at 40 mg/kg, ip dosed daily for 5 days measured 12 days after treatment termination; assay type: functional; details: CA-755, ip, route intraperitoneal, read-out: TGI
# [12] = tested on: TK-10; experiment: Growth inhibition of human TK10 cells; assay type: functional
# [13] = tested on: NCI-H226; experiment: Growth inhibition of human NCI-H226 cells; assay type: functional
# [14] = Antitumor activity against mouse AKATOL cells implanted in mouse assessed as tumor growth inhibition at 40 mg/kg, ip dosed daily for 5 days measured 5 days after treatment termination; assay type: functional; details: 120 h, route intraperitoneal, read-out: TGI
# [15] = Antitumor activity against mouse AKATOL cells implanted in mouse assessed as tumor growth inhibition at 40 mg/kg, ip dosed daily for 5 days measured 1 day after treatment termination; assay type: functional; details: route intraperitoneal, read-out: TGI
# [16] = tested on: KM12; experiment: Growth inhibition of human KM12 cells; assay type: functional
# [17] = tested on: Mus musculus; experiment: Toxicity in mouse P388 cells implanted mouse assessed as mean ascites volume at 40 mg/kg, ip dosed daily for 5 days administered 24 hrs after tumor implantation; assay type: organism-based; design: dose 40 mg/kg, route intraperitoneal; details: in vivo
# [18] = tested on: NCI60; experiment: Cytotoxicity against human NCI60 cells assessed as cell growth at 10 uM; assay type: functional
# [19] = tested on: HT-29; experiment: Growth inhibition of human HT-29 cells; assay type: functional
# [20] = tested on: Lewis lung carcinoma cell line; experiment: Antitumor activity against mouse LLC cells implanted in mouse assessed as tumor growth inhibition at 40 mg/kg, ip dosed daily for 5 days measured 12 days after treatment termination; assay type: functional; details: route intraperitoneal, read-out: TGI
# [21] = Growth inhibition of human HCT116 cells; assay type: functional
# [22] = tested on: SK-OV-3; experiment: Growth inhibition of human SKOV3 cells; assay type: functional
# [23] = Growth inhibition of human LOXIMVI cells; assay type: functional; details: LOX IMVI
# [24] = tested on: MCF7; experiment: Growth inhibition of human MCF7 cells; assay type: functional
# [25] = tested on: P388; experiment: Antitumor activity against mouse P388 cells implanted in mouse assessed as increase in life span at 40 mg/kg, ip dosed daily for 5 days administered 24 hrs after tumor implantation; assay type: functional; details: route intraperitoneal
# [26] = tested on: Mus musculus; experiment: Toxicity in mouse P388 cells implanted mouse assessed as mean spleen weight at 40 mg/kg, ip dosed daily for 5 days administered 24 hrs after tumor implantation; assay type: organism-based; design: dose 40 mg/kg, route intraperitoneal; details: in vivo
# [27] = Antitumor activity against mouse AKATOL cells implanted in mouse assessed as tumor growth inhibition at 40 mg/kg, ip dosed daily for 5 days measured 16 days after treatment termination; assay type: functional; details: route intraperitoneal, read-out: TGI
# [28] = tested on: ACHN; experiment: Growth inhibition of human ACHN cells; assay type: functional
# [29] = Growth inhibition of human BT549 cells; assay type: functional
# [30] = tested on: Lewis lung carcinoma cell line; experiment: Antitumor activity against mouse LLC cells implanted in mouse assessed as tumor growth inhibition at 40 mg/kg, ip dosed daily for 5 days measured 8 to 9 days after treatment termination; assay type: functional; details: route intraperitoneal, read-out: TGI
# [31] = tested on: SR; experiment: Growth inhibition of human SR cells; assay type: functional
# [32] = Growth inhibition of human OVCAR4 cells; assay type: functional, OVCAR-4
# [33] = tested on: U-251; experiment: Growth inhibition of human U251 cells; assay type: functional
# [34] = Growth inhibition of human HOP92 cells; assay type: functional
# [35] = Growth inhibition of human RXF393 cells; assay type: functional
# [36] = tested on: P388; experiment: Antitumor activity against mouse P388 cells implanted in mouse assessed as increase in life span at 10 mg/kg, ip dosed daily for 5 days administered 24 hrs after tumor implantation; assay type: functional; details: route intraperitoneal
# [37] = Growth inhibition of human RPMI8226 cells; assay type: functional, RPMI-8226
# [38] = tested on: SK-MEL-28; experiment: Growth inhibition of human SK-MEL-28 cells; assay type: functional
# [39] = Growth inhibition of human SF539 cells; assay type: functional
# [40] = tested on: IGROV-1; experiment: Growth inhibition of human IGROV1 cells; assay type: functional
# [41] = tested on: NCI-H522; experiment: Growth inhibition of human NCI-H522 cells; assay type: functional
# [42] = read-out: pLC50 (the source's name) (converted)
smiles,measurement,setting,value
COC(=O)[C@]1(C)CCC[C@]2(C)[C@H]3C[C@H]4C(C(C)C)=C[C@]3(CC[C@H]21)[C@@H]1/C(=N/O)CC/C(=N\O)[C@@H]14,Activity,[1],95 mg
same,GI50,[2]; CAKI-1,7.08 µM
same,CC50,"[2]; CAKI-1, read-out: pLC50 (converted)",> 100 µM
same,TGI,"[2]; CAKI-1, read-out: pTGI (converted)",32.4 µM
same,GI50,[3]; COLO 205,2.19 µM
same,CC50,"[3]; COLO 205, read-out: pLC50 (the source's name) (converted)",8.51 µM
same,TGI,"[3]; COLO 205, read-out: pTGI (converted)",4.37 µM
same,ILS at 60 mg/kg,[4],-10%
same,GI50,[5],4.9 µM
same,CC50,[5]; [42],95.5 µM
same,TGI,[5]; read-out: pTGI (converted),23.4 µM
same,inhibition in vivo at 40 mg/kg,[6],33%
same,GI50,[7]; A549,3.09 µM
same,CC50,"[7]; A549, read-out: pLC50 (converted)",> 100 µM
same,TGI,"[7]; A549, read-out: pTGI (converted)",10.5 µM
same,Activity,[8],0.6 mL
same,GI50,[9]; K562,3.24 µM
same,CC50,"[9]; K562, read-out: pLC50 (converted)",> 100 µM
same,TGI,"[9]; K562, read-out: pTGI (converted)",11.7 µM
same,GI50,[10],2.24 µM
same,CC50,[10]; [42],25.1 µM
same,TGI,[10]; read-out: pTGI (converted),6.76 µM
same,inhibition in vivo at 40 mg/kg,[11],35%
same,GI50,[12],9.12 µM
same,CC50,[12]; [42],56.2 µM
same,TGI,[12]; read-out: pTGI (converted),22.9 µM
same,GI50,[13],7.94 µM
same,CC50,[13]; [42],85.1 µM
same,TGI,[13]; read-out: pTGI (converted),28.2 µM
same,inhibition in vivo at 40 mg/kg,[14],60%
same,inhibition in vivo at 40 mg/kg,[15],57%
same,GI50,[16],3.39 µM
same,CC50,[16]; [42],34.7 µM
same,TGI,[16]; read-out: pTGI (converted),10.7 µM
same,Activity,[17],1.2 mL
same,Activity,[18],Active
same,GI50,[19],2.69 µM
same,CC50,[19]; [42],52.5 µM
same,TGI,[19]; read-out: pTGI (converted),7.94 µM
same,inhibition in vivo at 40 mg/kg,[20],30%
same,GI50,[21]; HCT-116,2.75 µM
same,CC50,"[21]; HCT-116, read-out: pLC50 (the source's name) (converted)",47.9 µM
same,TGI,"[21]; HCT-116, read-out: pTGI (converted)",8.51 µM
same,GI50,[22],10.2 µM
same,CC50,[22]; [42],47.9 µM
same,TGI,[22]; read-out: pTGI (converted),22.4 µM
same,GI50,[23],2 µM
same,CC50,[23]; [42],7.76 µM
same,TGI,[23]; read-out: pTGI (converted),3.98 µM
same,GI50,[24],1.78 µM
same,CC50,[24]; [42],9.55 µM
same,TGI,[24]; read-out: pTGI (converted),4.07 µM
same,ILS at 40 mg/kg,[25],-7%
same,Activity,[26],212 mg
same,inhibition in vivo at 40 mg/kg,[27],47%
same,GI50,[28],3.31 µM
same,CC50,[28]; [42],32.4 µM
same,TGI,[28]; read-out: pTGI (converted),10.5 µM
same,GI50,[29]; BT-549,3.55 µM
same,CC50,"[29]; BT-549, read-out: pLC50 (the source's name) (converted)",36.3 µM
same,TGI,"[29]; BT-549, read-out: pTGI (converted)",11.2 µM
same,inhibition in vivo at 40 mg/kg,[30],20%
same,GI50,[31],2 µM
same,CC50,[31]; [42],25.1 µM
same,TGI,[31]; read-out: pTGI (converted),4.79 µM
same,GI50,[32]; OVCAR-4,3.55 µM
same,CC50,"[32]; OVCAR-4, read-out: pLC50 (converted)",> 100 µM
same,TGI,"[32]; OVCAR-4, read-out: pTGI (converted)",19.1 µM
same,GI50,[33],4.07 µM
same,CC50,[33]; [42],39.8 µM
same,TGI,[33]; read-out: pTGI (converted),15.1 µM
same,GI50,[34]; HOP-92,2.09 µM
same,CC50,"[34]; HOP-92, read-out: pLC50 (the source's name) (converted)",39.8 µM
same,TGI,"[34]; HOP-92, read-out: pTGI (converted)",5.01 µM
same,GI50,[35]; RXF 393,2.14 µM
same,CC50,"[35]; RXF 393, read-out: pLC50 (the source's name) (converted)",8.91 µM
same,TGI,"[35]; RXF 393, read-out: pTGI (converted)",4.37 µM
same,ILS at 10 mg/kg,[36],-4%
same,GI50,[37]; RPMI-8226,2.09 µM
same,CC50,"[37]; RPMI-8226, read-out: pLC50 (converted)",> 100 µM
same,TGI,"[37]; RPMI-8226, read-out: pTGI (converted)",4.79 µM
same,GI50,[38],9.33 µM
same,CC50,[38]; [42],53.7 µM
same,TGI,[38]; read-out: pTGI (converted),22.9 µM
same,GI50,[39]; SF-539,9.12 µM
same,CC50,"[39]; SF-539, read-out: pLC50 (the source's name) (converted)",46.8 µM
same,TGI,"[39]; SF-539, read-out: pTGI (converted)",21.4 µM
same,GI50,[40]; IGROV-1,4.57 µM
same,CC50,"[40]; IGROV-1, read-out: pLC50 (converted)",> 100 µM
same,TGI,"[40]; IGROV-1, read-out: pTGI (converted)",21.9 µM
same,GI50,[41],3.8 µM
same,CC50,[41]; [42],93.3 µM
same,TGI,[41]; read-out: pTGI (converted),17.8 µM
